How the values were obtained:
[1] = target: T1, Amine oxidase [flavin-containing] B (Homo sapiens, UniProt P27338); test: MAO-A and MAO-B Fluorescence Assay; details: pH 7.4
T1 sequence (P27338 whole entry): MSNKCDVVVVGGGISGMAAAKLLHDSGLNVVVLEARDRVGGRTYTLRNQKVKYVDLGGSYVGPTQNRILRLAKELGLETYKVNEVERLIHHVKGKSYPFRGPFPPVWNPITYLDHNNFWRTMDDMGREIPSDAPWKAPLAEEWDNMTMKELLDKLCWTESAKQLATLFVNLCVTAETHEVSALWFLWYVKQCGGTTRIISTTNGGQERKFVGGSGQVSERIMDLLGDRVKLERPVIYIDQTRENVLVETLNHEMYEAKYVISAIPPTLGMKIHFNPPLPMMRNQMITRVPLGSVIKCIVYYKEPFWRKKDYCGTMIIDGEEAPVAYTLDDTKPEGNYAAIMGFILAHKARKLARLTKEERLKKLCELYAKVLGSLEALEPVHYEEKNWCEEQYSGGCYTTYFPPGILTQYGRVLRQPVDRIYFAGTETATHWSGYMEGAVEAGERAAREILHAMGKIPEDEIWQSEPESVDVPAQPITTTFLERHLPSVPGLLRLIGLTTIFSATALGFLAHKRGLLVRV
Method: (§1) Recombinant human MAO-A and MAO-B were used for these studies and kynuramine served as enzyme substrate. Kynuramine is oxidised by both MAO isoforms to yield 4-hydroxyquinoline as ultimate product. For the enzyme reactions MAO-A (0.0075 mg/mL) or MAO-B (0.015 mg/mL), the substrate (50 μM) and the test inhibitors (0.003-100 μM) were combined and incubated for 20 min. For this purpose potassium phosphate buffer (pH 7.4, 100 mM) served as solvent. At endpoint the reactions were alkalinised (NaOH) and the fluorescence intensity of 4-hydroxyquinoline was measured (kex = 310 nm; kem = 400 nm).

[2] = target: T2, Amine oxidase [flavin-containing] A (Homo sapiens, UniProt P21397); test: MAO-A and MAO-B Fluorescence Assay; details: pH 7.4
T2 sequence (P21397 whole entry): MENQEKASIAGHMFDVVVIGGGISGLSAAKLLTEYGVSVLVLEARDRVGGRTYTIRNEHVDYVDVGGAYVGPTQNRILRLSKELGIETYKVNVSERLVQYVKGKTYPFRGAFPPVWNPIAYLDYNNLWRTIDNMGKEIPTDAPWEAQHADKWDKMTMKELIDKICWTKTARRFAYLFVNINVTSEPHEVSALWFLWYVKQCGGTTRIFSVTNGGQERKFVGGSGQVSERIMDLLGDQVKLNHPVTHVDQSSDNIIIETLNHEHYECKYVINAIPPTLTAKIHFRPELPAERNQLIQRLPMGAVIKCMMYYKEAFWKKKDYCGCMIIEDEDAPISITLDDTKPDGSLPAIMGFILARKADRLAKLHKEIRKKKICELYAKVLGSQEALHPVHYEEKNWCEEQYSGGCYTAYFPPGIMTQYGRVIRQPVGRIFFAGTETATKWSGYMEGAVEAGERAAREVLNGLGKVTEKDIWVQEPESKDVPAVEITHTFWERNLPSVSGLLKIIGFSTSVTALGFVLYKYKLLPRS
Method: as §1

| Compound | IC50 [1] | IC50 [2] |
| --- | --- | --- |
| O=C1/C(=C/c2cccnc2Cl)Cc2ccccc21 [(2E)-2-[(2-Chloropyridin-3-yl)methylidene]-2,3-dihydro-1Hinden-1-one (11e)] | 0.465 µM | 0.471 µM |
| O=C1/C(=C/c2ccsc2)Cc2ccccc21 [(2E)-2-(Thiophen-3-ylmethylidene)-2,3-dihydro-1H-inden-1-one (11k)] | 0.114 µM | 1.51 µM |
| COc1ccc2c(c1)C/C(=C\c1ccco1)C2=O [(2E)-2-(Furan-2-ylmethylidene)-5-methoxy-2,3-dihydro-1Hinden-1-one (11g)] | 0.394 µM | 2.33 µM |
| COc1ccc2c(c1)C/C(=C\c1cccnc1)C2=O [(2E)-5-Methoxy-2-(pyridin-3-ylmethylidene)-2,3-dihydro-1Hinden-1-one (11b)] | 0.338 µM | 8.55 µM |
| COc1ccc2c(c1)C/C(=C\c1ccc(Br)o1)C2=O [(2E)-2-[(5-Bromofuran-2-yl)methylidene]-5-methoxy-2,3-dihydro-1H-inden-1-one (11o)] | 0.0044 µM | 0.183 µM |
| COc1ccc2c(c1)C/C(=C\C1CCCCC1)C2=O [(2E)-2-(Cyclohexylmethylidene)-5-methoxy-2,3-dihydro-1Hinden-1-one (11m)] | 0.139 µM |  |

The remaining compounds from weak to strong by IC50 [1], led by results:

| IC50 [1] | IC50 [2] | Compound |
| --- | --- | --- |
| 1.53 µM | 0.853 µM | O=C1/C(=C/c2ccccn2)Cc2ccccc21 [(2E)-2-(Pyridin-2-ylmethylidene)-2,3-dihydro-1H-inden-1-one (11c)] |
| 1.27 µM | 0.061 µM | O=C1/C(=C/c2cccnc2)Cc2ccccc21 [(2E)-2-(Pyridin-3-ylmethylidene)-2,3-dihydro-1H-inden-1-one (11a)] |
| 0.889 µM | 1.2 µM | O=C1/C(=C/c2ccco2)Cc2ccccc21 |
| 0.418 µM | 1.33 µM | O=C1/C(=C/c2cccs2)Cc2ccccc21 [(2E)-2-(Thiophen-2-ylmethylidene)-2,3-dihydro-1H-inden-1-one (11h)] |
| 0.229 µM | 5.21 µM | O=C1/C(=C/C2CCCCC2)Cc2ccccc21 [(2E)-2-(Cyclohexylmethylidene)-2,3-dihydro-1H-inden-1-one (11l)] |
| 0.114 µM | 5.18 µM | COc1ccc2c(c1)C/C(=C\c1cccs1)C2=O [(2E)-5-Methoxy-2-(thiophen-2-ylmethylidene)-2,3-dihydro-1H-inden-1-one (11i)] |
| 0.112 µM | 0.302 µM | COc1ccc2c(c1)C/C(=C\c1ccccn1)C2=O [(2E)-5-Methoxy-2-(pyridin-2-ylmethylidene)-2,3-dihydro-1Hinden-1-one (11d)] |
| 0.026 µM | 4.73 µM | COc1ccc2c(c1)C/C(=C\c1ccc(C)o1)C2=O [(2E)-5-Methoxy-2-[(5-methylfuran-2-yl)methylidene]-2,3-dihydro-1H-inden-1-one (11n)] |

From BindingDB's records for doi:10.1016/j.bioorg.2016.09.004 (North-West University, 2016)
